Measurements taken from ChEMBL document CHEMBL5608141, “Identification of compartment-specific drug sensitivities in CRC organoid-stroma co-cultures” (2024).

Assays:
Format in all cases: functional, Homo sapiens
Design in all cases: dose or concentration left out as unconfirmed
Colon cancer organoid [1] = test: Identification of compartment-specific drug sensitivities in O14 CRC organoid-stroma F14 CAF co-cultures. Organoid is transduced with Lucferase2-P2A-EGFP lentivirus, fibroblast with Renilla-dsRed lentivirus. Dual-Glo Luciferase assay is used to report viability data.
Colon cancer organoid [2] = test: Identification of compartment-specific drug sensitivities in O20 CRC organoid-stroma F20 CAF co-cultures. Organoid is transduced with Lucferase2-P2A-EGFP lentivirus, fibroblast with Renilla-dsRed lentivirus. Dual-Glo Luciferase assay is used to report viability data.
Colon cancer organoid [3] = test: Identification of compartment-specific drug sensitivities in O06 CRC organoid-stroma F06 CAF co-cultures. Organoid is transduced with Lucferase2-P2A-EGFP lentivirus, fibroblast with Renilla-dsRed lentivirus. Dual-Glo Luciferase assay is used to report viability data.
[4] = Transduced with Lucferase2-P2A-EGFP lentivirus
[5] = Transduced with Renilla-dsRed lentivirus

SMILES | Cell Viability (Colon cancer organoid [1]; [4]) [%] | Cell Viability (Colon cancer organoid [1]; [5]) [%] | Cell Viability (Colon cancer organoid [2]; [4]) [%] | Cell Viability (Colon cancer organoid [2]; [5]) [%] | Cell Viability (Colon cancer organoid [3]; [4]) [%] | Cell Viability (Colon cancer organoid [3]; [5]) [%]
Cn1c(C2(NC(=O)c3ccc(NCC4CCCCC4)nc3)CCC2)nc2ccc(/C=C/C(=O)O)cc21 [BI 7656] | 93.219 | 83.8542 | 93.1126 | 134.723 | 95.6503 | 130.646
C[C@@]1(Cc2ccc(C#N)cc2)C(=O)N(c2cc(Cl)cc(Cl)c2)c2ncc(C(=O)NC3(c4nc(C5CCC5)no4)CC3)n21 [BI 9446] | 102.867 | 111.855 | 72.3076 | 136.535 | 82.5213 | 98.3986
CC(=O)N1CCC(c2ccc(C(=O)NC(=N)N)cc2C(F)(F)F)CC1 [BI 9627] | 100.11 | 107.329 | 96.0735 | 101.417 | 118.657 | 157.583
CCC(=O)N[C@H]1CC[C@@H](C(=O)N(C)c2ccc(-c3nc4ccccc4o3)cc2)C1 [BI 99179] | 77.0742 | 106.772 | 33.9891 | 149.12 | 14.7827 | 191.434
CCC(=O)N[C@@H]1CC[C@H](C(=O)N(C)c2ccc(-c3nc4ccccc4o3)cc2)C1 [BI 99990] | 98.8872 | 100.403 | 115.817 | 121.154 | 102.864 | 119.997
CCS(=O)(=O)c1cc2cc(C[C@](O)(CC(C)(C)c3ccc(F)cc3C(N)=O)C(F)(F)F)[nH]c2cn1 [BI 653048] | 130.109 | 193.347 | 85.6205 | 287.465 | 70.4743 | 199.02
CC[C@H](CC(=O)O)n1c(=O)c2ncccc2n(Cc2cn(C)c3cc(C)cc(C)c23)c1=O [BI-1942] | 102.331 | 109.089 | 108.303 | 100.799 | 119.907 | 136.619
CC[C@@H]1C(=O)N(C)c2cnc(Nc3ccc(C(=O)NC4CCN(C)CC4)cc3OC)nc2N1C1CCCC1 [BI-2536] | 2.9466 | 167.188 | 3.721 | 168.723 | 3.341 | 324.743
CN(C)C(=O)c1sc2nc(N3CCC(S(C)(=O)=O)CC3)cc(C(F)(F)F)c2c1N [BI-5026] | 89.1429 | 109.835 | 83.1119 | 112.021 | 108.851 | 103.89
CCC(F)(F)c1cc(N2CCC(S(C)(=O)=O)CC2)nc2sc(C(N)=O)c(N)c12 [BI-605906] | 95.5116 | 75.9837 | 180.529 | 81.0914 | 93.6384 | 92.3898
CCOc1ccn(-c2ccc(F)cc2)c(=O)c1C(=O)Nc1ccc(Oc2ccnc(N)c2Cl)c(F)c1 [BMS-777607] | 88.1625 | 100.395 | 100.48 | 72.8578 | 91.8113 | 94.0587
O=c1nc(-c2ccccn2)sc2ccccc12 [BTZO-1] | 117.78 | 105.233 | 113.092 | 104.485 | 109.998 | 128.099
O=C1NC(c2ccccn2)Sc2ccccc21 (stereo not given) [BTZO-4] | 106.577 | 104.892 | 109.35 | 85.8309 | 80.8326 | 70.0316
C=CC(=O)Nc1ccc2[nH]c(=O)n(C3CCN(Cc4ccc(-c5nc6cc[nH]c(=O)c6cc5-c5ccccc5)cc4)CC3)c2c1 [Borussertib] | 60.6786 | 71.4907 | 47.6492 | 149.193 | 51.8578 | 132.383
O=C(NOCC1CC1)c1ccc(F)c(F)c1Nc1ccc(I)cc1Cl [CI-1040] | 35.7635 | 62.5859 | 44.1491 | 195.336 | 38.2974 | 73.8424
